US10278931B2, “Composition for treatment of inflammatory bowel disease and atopic dermatitis” (INNOPHARMASCREEN INC., priority 2015, dated 2019)

Experiments:
DSS-induced animal model = experiment: DSS-induced inflammatory bowel disease (enteritis) model; assay type: in vivo, C57BL/6 mice
Experimental: Six-week-old female SPF (Specific pathogen-free) C57BL/6 mice were purchased from DuPont Biotech. The mice were allowed to freely ingest a feed and water after an acclimation period of 1 week in an animal room of Hoseo University Safety Evaluation Center maintained at temperature of 21±3° C., humidity of 50±20%, and light/darkness cycle of 12 h/12 h. All procedures in the present animal experiment were conducted after approved by the Animal Experimental Ethics Committee of Hoseo University (HTRC-15-19, and HTRC-16-22(2)).
Dextran sodium sulfate (cat no 160110 by Mpbio. corn) as a colitis inducer was diluted to 3% concentration in drinking water and orally administered to mice to induce enteritis. The mice were divided into 6 groups and DW was administered to the animals of a control, and 1.0 mg/kg and 10 mg/kg of the test material were orally administered to the animals of the experimental groups once a day for […]. Sulfasalazine (100 mg/kg) dissolved in crude olive oil was orally administered once a day to the animals of a positive control. In acute cases, disease progression levels were examined after 5 days of administration. In chronic cases, disease progression levels were examined 15 days and 30 days after the 5 days of administration (reference: Toxicology Reports 2 (2015) 10391045-Caryophyllene attenuates dextran sulfate sodium-induced colitis in mice via modulation of gene expression associated mainly with colon inflammation).
Body weights were measured once for 5 days or more during the test period. The measured weights were quantified as 0 point if there was no difference compared with the normal control, 1 point for weight loss rate of 15%, 2 points for 510%, 3 points for 1015%, and 4 points for >15%. Feces observation was performed to examine the incidence of diarrhea, and the results thereof were quantified as scores (0, normal stool; 1, mildly soft stool; 2, very soft stool; 3, very soft stool (no regular shape); 4, watery stool).
Rectal tissues and blood were collected from 5 individuals for each of the autopsy times. Yuhan ketamine 50® (Yuhan Corporation, Korean) and Rompun (Bayer, USA) were mixed in a ratio of 3:1, and then used to anesthetize animals via muscular injection. Each anesthetized animal was subjected to laparotomy to collect blood from the abdominal artery, and after blood collection, the abdominal artery was cut and subjected to venesection and death to collect rectal tissue. The length and weight of the collected tissue were measured to calculate weight per 1 cm of the tissue. Some of the collected tissues were used in biopsy, and some thereof were frozen in liquid nitrogen and stored at −70° C. before analysis. […]

caspase-1 = molecular target: T1, caspase-1 (Mus musculus, UniProt P29452); experiment: Caspase-1 assay in dorsal skin of DNCB-applied mice; assay type: in vivo; conditions: DNCB-applied balb/c mice, concentration-dependent
T1 construct: using the dorsal skin of DNCB-applied balb/c mice; from tissue; host or cells: dorsal skin of BALB/c mice
T1 sequence (P29452 119-402): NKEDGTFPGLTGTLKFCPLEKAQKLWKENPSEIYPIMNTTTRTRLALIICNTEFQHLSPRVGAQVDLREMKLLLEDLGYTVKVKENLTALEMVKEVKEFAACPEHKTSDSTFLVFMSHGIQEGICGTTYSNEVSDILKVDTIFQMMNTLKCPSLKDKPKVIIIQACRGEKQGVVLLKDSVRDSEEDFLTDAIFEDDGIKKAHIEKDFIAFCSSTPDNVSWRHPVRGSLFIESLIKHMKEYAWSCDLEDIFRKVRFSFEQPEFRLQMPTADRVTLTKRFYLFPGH
Experimental: (4) Caspase-1 assay: Recombinant caspase-1 and a drug were allowed to react, and then activity measurement was performed using a caspase-1 assay kit (R&D Systems Inc., Minneapolis, Minn., USA).
B. Dermatitis induction: Hairs on the back of each mouse were removed and maintained for 24 hours, and then 150 μl of a 1% 2,4-dinitrochlorobenzene(DNCB) solution (acetone: olive oil=3:1) was applied on the hair-removed site once a week for 3 weeks. After week 3, the DNCB solution was applied on the site twice a week for 3 weeks to induce atopic dermatitis.
C. Treatment: Mice were divided into 6 groups, and 0.5% DMSO was applied on animals as a control and 200 μl of each of 0.01 μM, 0.1 μM, and 1 μM test material was applied on animals as experimental groups for 3 weeks. 50 μl of 0.1% dexamethasone dissolved in a crude alcohol was applied on animals as a positive control at intervals of 2 days.

Cl.N=C(N)NC(=N)Nc1ccc(Cl)cc1 [IPS-07001]
enteritis inhibitory activity (ratio of enteric weight to enteric length, wt/cm) (DSS-induced animal model; 10 mg/kg oral, compared to DSS control): superior enteritis inhibitory activity | melena (DSS-induced animal model; compared to the DSS-induced group, oral): significantly decreased | caspase-1 activity in dorsal skin (caspase-1): significantly inhibited
